Experimental findings from patent publication US4105603A, “Peptides which effect release of hormones” (The Salk Institute for Biological Studies, priority 1977, dated 1978) are described below.

Non-standard residues stand in square brackets, D forms with d.

The subject of test [1] is rat anterior pituitary cells. As to the kind of experiment: In vitro bioassay: secretion of growth hormone by primary cultures of dissociated rat anterior pituitary cells. In kind it is cell-based. Particulars: cultured rat anterior pituitary cells, somatostatin = 100. The method, then: In vitro Bioassay: The effects of the various peptides of the invention were tested in vitro on the secretion of growth hormone by primary cultures of enzymatically dissociated rat anterior pituitary cells by the method of Vale et al., Endocrinology 91: p 562-571 (1972). The assay is made by treating pituitary glands removed from rats to separate cells therefrom. The cells are placed in culture dishes in Dulbecco's Modified Eagle Medium (Dulbecco et al., Virology, Vol. 8, p. 396, […]). Carbon dioxide gas and oxygen are supplied to the cell cultures which are maintained at 37° C for 4-5 days prior to use in the assay. Following media changes, cell cultures are incubated for a period of 4 hours and particular somatostatin peptides are added thereto. Radioimmunoassay analysis is used to determine the rate of growth hormone secretion which is expressed in nanograms per hour.
GH determinations were performed on tissue culture media utilizing the following reagents: NIAMDD rat GH standard (GH-RP-1), NIAMDD monkey anti-rat GH (GH-Serum-3), and highly purified rat GH for iodination.
(§1) All experiments were carried on in a randomized block design. Following analysis of variance difference between treatments were determined by the multiple range tests of Dunnett and Duncan. Potency values were calculated from four or six point bioassays.

The subject of another test is insulin secretion. As to the kind of experiment: In vivo bioassay: inhibition of insulin release, portal vein plasma after i.v. peptide. On the set-up: species or system Sprague-Dawley-CD rats. Conditions: rat, external jugular vein administration, somatostatin = 100. The procedure:
(§2) An investigation of the effect of somatostatin, dihydrosomatostatin, (as controls) and the peptides of the invention to inhibit the release of glucagon and insulin was made as follows:
(§3) In vivo Bioassay: Male Sprague-Dawley-CD rats weighing 180-200 g housed in temperature and humidity controlled quarters with 14h light and 10h dark (light 0700-[…]) were used in all experiments. Animals were fed a standard ration and tap water ad libitum. Experiments were carried out at least 5 days after arrival of rats from the supplier between the hours 1400 to 1600. After ether anesthesia, peptides or saline were administered in a volume of 0.2 ml. via the external jugular vein. Animals remained anesthetized until the time of blood collection from the portal vein. […]
(§4) Plasma was stored at -20° C for insulin and glucagon determinations. Insulin levels were determined by the method of Herbert et al, […]. […] Glucagon was determined by the method of Faloona and Unger, in Jaffe et al ed., Methods of Hormone Radioimmunoassay, Academic Press, New York, 1974, p. […] was determined by the glucose oxidase method, utilizing a Beckman Glucose Analyzer.
as §1

The test system of a further test is glucagon secretion. As to the kind of experiment: In vivo bioassay: inhibition of glucagon release, portal vein plasma after i.v. peptide. Also noted: species or system Sprague-Dawley-CD rats. Conditions: rat, external jugular vein administration, somatostatin = 100. The method, then: as §2, §3, §4, §1

For “H-CFF[dW]KFFC-OH (cysteine pairing not given here) [desR1 D-Trp Phe desR4 desR5]”, the “percent effectiveness for inhibiting secretion of Growth Hormone, somatostatin taken as the base” value in test [1] is reported as 6%. Also, the “percent effectiveness for inhibiting secretion of Insulin, somatostatin taken as the base” value in the test with insulin secretion turned out to be 80%. Moreover, in the test with glucagon secretion, the “percent effectiveness for inhibiting secretion of Glucagon, somatostatin taken as the base” value is 100%.

Take `C[C@H](N)C(=O)NCC(=O)N[C@H]1CSSC[C@@H](C(=O)O)NC(=O)[C@H](CO)NC(=O)[C@H]([C@@H](C)O)NC(=O)[C@H](Cc2ccccc2)NC(=O)[C@H]([C@@H](C)O)NC(=O)[C@H](CCCCN)NC(=O)[C@H](Cc2c[nH]c3ccccc23)NC(=O)[C@H](Cc2ccccc2)NC(=O)[C@H](Cc2ccccc2)NC(=O)[C@H](CC(N)=O)NC(=O)[C@H](CCCCN)NC1=O` [Somatostatin, somatostatin]: the “percent effectiveness for inhibiting secretion of Growth Hormone, somatostatin taken as the base” value in test [1] was determined as 100%. Further, in the test on insulin secretion, the “percent effectiveness for inhibiting secretion of Insulin, somatostatin taken as the base” value is recorded as 100%. The “percent effectiveness for inhibiting secretion of Glucagon, somatostatin taken as the base” value with glucagon secretion is 100%.
